Experiments:
[1] = tested on: Multiple myeloma tumor cells (H929); assay: In vitro cytotoxicity, MTT assay, 48 hours exposure; format: cell-based; details: Homo sapiens, NCI-H929, MTT cell viability
Description: Multiple myeloma tumor cells (H929) were used for toxicity studies, and the cells were distributed in microtiter plates and exposed to the compounds tested for 48 hours.

Mcl-1 protein = Mcl-1 protein (Homo sapiens, UniProt Q07820); assay: Inhibition of Mcl-1 activity by fluorescence polarization (FP) competition with a fluorescein-labeled ligand; format: binding; details: 10 nM Mcl-1 protein, 10 nM labeled ligand, 2 hours at room temperature
Sequence of Mcl-1 protein (Q07820 whole entry): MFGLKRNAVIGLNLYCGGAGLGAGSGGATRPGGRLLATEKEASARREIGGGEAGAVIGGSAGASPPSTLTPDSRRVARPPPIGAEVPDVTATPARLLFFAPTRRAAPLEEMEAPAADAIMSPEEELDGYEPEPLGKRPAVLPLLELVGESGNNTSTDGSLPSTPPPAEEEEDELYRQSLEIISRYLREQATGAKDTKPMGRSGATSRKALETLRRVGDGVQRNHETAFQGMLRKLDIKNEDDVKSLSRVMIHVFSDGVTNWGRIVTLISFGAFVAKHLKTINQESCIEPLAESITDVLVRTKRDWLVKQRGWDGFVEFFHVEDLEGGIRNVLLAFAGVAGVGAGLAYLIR

Row | SMILES | IC50 [1] | IC50 (Mcl-1 protein)
1 | Cc1c(-c2c(-c3ccc(F)o3)sc3ncnc(O[C@H](C(=O)O)C(F)(F)c4ccccc4OCc4ccnn4CC(F)(F)F)c23)ccc(OCCN2CCN(C)CC2)c1Cl [Compound 103] | > 10 nM | 1 to 10 nM
2 | Cc1c(-c2c(-c3ccc(F)o3)sc3ncnc(O[C@H](Cc4ccccc4OCc4ccnn4CC(F)(F)F)C(=O)O)c23)ccc(OCCN2CCN(C)CC2)c1Cl [II, reference compound] | > 10 nM | 
3 | Cc1c(-c2c(-c3ccc(F)o3)sc3ncnc(O[C@@H](C(=O)O)C(F)(F)c4ccccc4OCc4ccnn4CC(F)(F)F)c23)ccc(OCCN2CCN(C)CC2)c1Cl [Compound 102] | > 10 nM | < 1 nM

From patent US10919908B2, “Thienopyrimidinone derivative and application thereof in preparing anticancer drug” (Henan Genuine Biotech Co., Ltd., priority 2017, dated 2021)
